Measured values as given in US3963707A, “Novel N-nitroso compounds, compositions containing such compounds, processes for their preparation and methods of treatment therewith, and novel intermediates” (Aktiebolaget Leo, priority 1973, dated 1976).

Tests used:
Hepatoma AH 130 = experiment: in vivo; set-up: species or system SPF Wistar rats; settings: additional compounds, result in words
Text: (§1) The high activity against tumours is further illustrated in these experiments by comparisons with known antitumour agents used in the therapy. The therapeutic indexes (T.I.), i.e. the ratios LD50/ED50, are in all comparisons much more favourable with the compounds of the present invention.
(§2) LD50 is the dose that caused a 50 percent lethality of the animals, ED50 is the dose that caused a 50 percent reduction of tumour size.
(§3) The experimental design and the interpretation of the results have been in accordance with the standards set by the CCNSC (Cancer Chemotherapy Reports, January 1959 and December 1962), and by the DR&D (Cancer Chemotherapy Reports, September 1972, Vol. 3, No. 2).
(§4) The way of administration is by the intraperitoneal route (i.p.) in each case.
Experimental animals: SPF Wistar rats.
Tumour implant: 5 × 10^6 tumour cells i.p.
(§5) Therapy: One injection i.p. on the day following implantation.
(§6) Termination: The animals are killed on the 8th day.
(§7) Evaluation: Weights of tumours of test animals compared with those of control animals.

[1] = system: Ehrlich ascites tumour, ELD hyperdiploid (46 chromosomes); experiment: Ehrlich ascites tumour test (LD50, ED50, therapeutic index); assay type: in vivo, SPF NMRI mice; settings: additional compounds, result in words
Text: as §1, §2, §3, §4
Ehrlich ascites tumour, ELD hyperdiploid (46 chromosomes)
Experimental animals: SPF NMRI mice.
Tumour implant: 2 × 10^6 tumour cells i.p.
as §5, §6, §7

| SMILES | anti-tumor activity (Hepatoma AH 130) | anti-tumor activity [1] |
| --- | --- | --- |
| C#C[C@]1(OC(=O)N(CCCl)N=O)CC[C@H]2[C@@H]3CCC4=CC(=O)CC[C@@H]4[C@H]3CC[C@@]21C [17α-ethynyl-19-nortestosterone-17β-N-(2-chloroethyl)-N-nitroso carbamate] | exhibit anti-tumor activity | exhibit anti-tumor activity |
| C[C@]12CC[C@H](OC(=O)NC(=O)N(CCCl)N=O)CC1=CC[C@@H]1[C@@H]2CC[C@]2(C)C(=O)CC[C@@H]12 [dehydroepiandrosterone-3β-/N^4-(2-chloroethyl)-N^4-nitroso allophanate/] | exhibit anti-tumor activity | exhibit anti-tumor activity |
| C[C@]12CC[C@@H](OC(=O)N(CCCl)N=O)C[C@@H]1CC[C@@H]1[C@@H]2CC[C@]2(C)[C@@H](O)CC[C@@H]12 [androstanediol-3α-N-(2-chloroethyl)-N-nitroso carbamate] | exhibit anti-tumor activity | exhibit anti-tumor activity |
| C[C@]12CC[C@H](OC(=O)N(C(=O)N(CCCl)N=O)c3ccccc3)CC1=CC[C@@H]1[C@@H]2CC[C@]2(C)C(=O)CC[C@@H]12 [dehydroepiandrosterone-3β-/N^2-phenyl-N^4-(2-chloroethyl)-N^4-nitroso allophanate/] | exhibit anti-tumor activity | exhibit anti-tumor activity |
| C[C@]12CC[C@@H]3c4ccc(OC(=O)N(CCCl)N=O)cc4CC[C@H]3[C@@H]1C[C@@H](OC(=O)CCC(=O)O)[C@@H]2OC(=O)CCC(=O)O [estriol-3-N-(2-chloroethyl)-N-nitroso carbamate-16α,17β-bis-hemisuccinate] | exhibit anti-tumor activity | exhibit anti-tumor activity |
| C[C@]12CC[C@@H]3c4ccc(OC5CCCC5)cc4CC[C@H]3[C@@H]1CC[C@@H]2OC(=O)N(CCCl)N=O [estradiol-17β-N-(2-chloroethyl)-N-nitroso carbamate-3-cyclopentyl ether] | exhibit anti-tumor activity | exhibit anti-tumor activity |
| C#C[C@]1(OC(C)=O)CC[C@H]2[C@@H]3CCc4cc(OC(=O)N(CCCl)N=O)ccc4[C@H]3CC[C@@]21C [17α-ethynylestradiol-17β-acetate-3-N-(2-chloroethyl)-N-nitroso carbamate] | exhibit anti-tumor activity | exhibit anti-tumor activity |
| C[C@]12CC[C@H](OC(=O)N(CCCl)C(=O)N(CCCl)N=O)CC1=CC[C@@H]1[C@@H]2CC[C@]2(C)C(=O)CC[C@@H]12 [dehydroepiandrosterone-3β-/N^2,N^4-bis (2-chloroethyl)-N^4-nitroso allophanate/] | exhibit anti-tumor activity | exhibit anti-tumor activity |
| CC(=O)Oc1ccc2c(c1)CC[C@@H]1[C@@H]2CC[C@@]2(C)[C@H]1C[C@@H](OC(=O)N(CCCl)N=O)[C@@H]2OC(=O)N(CCCl)N=O [estriol-3-acetate-16α,17β-bis-/N-(2-chloroethyl)-N-nitroso carbamate/] | exhibit anti-tumor activity | exhibit anti-tumor activity |
| C[C@]12CC[C@H]3[C@@H](CCC4=CC(=O)CC[C@@]43C)[C@@H]1CC[C@@H]2OC(=O)N(C(=O)N(CCCl)N=O)C1CCCCC1 [testosterone-17β-/N^2-cyclohexyl-N^4-(2-chloroethyl)-N^4-nitroso allophanate/] | exhibit anti-tumor activity | exhibit anti-tumor activity |
| C[C@]12CC[C@H](OC(=O)N(CCF)N=O)CC1=CC[C@@H]1[C@@H]2CC[C@]2(C)C(=O)CC[C@@H]12 [dehydroepiandrosterone-3β-N-(2-fluoroethyl)-N-nitroso carbamate] | exhibit anti-tumor activity | exhibit anti-tumor activity |
| C[C@]12CCC(=O)C=C1CC[C@@H]1[C@@H]2[C@@H](O)C[C@@]2(C)[C@H]1CC[C@]2(O)C(=O)COC(=O)N(CCCl)N=O [hydrocortisone-21-N-(2-chloroethyl)-N-nitroso carbamate] | exhibit anti-tumor activity | exhibit anti-tumor activity |
| CC[C@]1(OC(=O)N(CCCl)N=O)CC[C@H]2[C@@H]3CCC4=CC(=O)CC[C@@H]4[C@H]3CC[C@@]21C [17α-ethyl-19-nortestosterone-17β-N-(2-chloroethyl)-N-nitroso carbamate] | exhibit anti-tumor activity | exhibit anti-tumor activity |
| C#C[C@]1(OC(=O)N(CCCl)C(=O)N(CCCl)N=O)CC[C@H]2[C@@H]3CCC4=CC(=O)CC[C@@H]4[C@H]3CC[C@@]21C [17α-ethynyl-19-nortestosterone-17β-/N^2,N^4-bis (2-chloroethyl)-N^4-nitroso allophanate/] | exhibit anti-tumor activity | exhibit anti-tumor activity |
| CCCCN(C(=O)O[C@H]1CC[C@@]2(C)C(=CC[C@@H]3[C@@H]2CC[C@]2(C)C(=O)CC[C@@H]32)C1)C(=O)N(CCCl)N=O [dehydroepiandrosterone-3β-/N^2-n-butyl-N^4-(2-chloroethyl)-N^4-nitroso allophanate/] | exhibit anti-tumor activity | exhibit anti-tumor activity |
| CC(=O)O[C@H]1CC[C@H]2[C@@H]3CCc4cc(OC(=O)N(CCCl)C(=O)N(CCCl)N=O)ccc4[C@H]3CC[C@]12C [estradiol-17β-acetate-3-/N^2,N^4-bis (2-chloroethyl)-N-^4-nitroso allophanate/] | exhibit anti-tumor activity | exhibit anti-tumor activity |
| C[C@]12C=CC(=O)C=C1CC[C@@H]1[C@@H]2C(=O)C[C@@]2(C)[C@H]1CC[C@]2(O)C(=O)COC(=O)N(CCCl)N=O [prednisone-21-N-(2-chloroethyl)-N-nitroso carbamate] | exhibit anti-tumor activity | exhibit anti-tumor activity |
| CC(=O)[C@@]1(OC(=O)N(CCCl)N=O)CC[C@H]2[C@@H]3CCC4=CC(=O)CC[C@]4(C)[C@H]3CC[C@@]21C [17α-hydroxy-progesterone,17α-N-(2-chloroethyl)-N-nitroso carbamate] | exhibit anti-tumor activity | exhibit anti-tumor activity |
| C[C@]12CC[C@@H]3c4ccc(OC(=O)N(CCCl)N=O)cc4CC[C@H]3[C@@H]1CC[C@@H]2OP(=O)(O)O [estradiol-3-N-(2-chloroethyl)-N-nitroso carbamate-17β-dihydrogen phosphate] | exhibit anti-tumor activity | exhibit anti-tumor activity |
| C[C@]12CC[C@@H]3c4ccc(OC(=O)N(CCCl)N=O)cc4CC[C@H]3[C@@H]1CC[C@@H]2OS(=O)(=O)O [estradiol-3-N-(2-chloroethyl)-N-nitroso carbamate-17β-sodium sulphate] | exhibit anti-tumor activity | exhibit anti-tumor activity |
| C[C@]12CC[C@H]3[C@@H](CCC4=CC(=O)CC[C@@H]43)[C@@H]1CC[C@@H]2OC(=O)N(C(=O)N(CCCl)N=O)C1CCCCC1 [19-nortestosterone-17β-/N^2-cyclohexyl-N^4-(2-chloroethyl)-N^4-nitroso allophanate/] | exhibit anti-tumor activity | exhibit anti-tumor activity |
| C[C@]12CC[C@@H](OC(=O)N(CCCl)N=O)C[C@@H]1CC[C@@H]1[C@@H]2CC[C@]2(C)[C@@H](OP(=O)(O)O)CC[C@@H]12 [androstanediol-3α-N-(2-chloroethyl)-N-nitroso carbamate-17β-dihydrogen phosphate] | exhibit anti-tumor activity | exhibit anti-tumor activity |
| C#C[C@]1(OC(C)=O)CC[C@H]2[C@@H]3CCc4cc(OC(=O)N(CCCl)C(=O)N(CCCl)N=O)ccc4[C@H]3CC[C@@]21C [17α-ethynylestradiol-17β-acetate-3-/N^2,N^4-bis(2-chloroethyl)-N^4-nitroso allophanate/] | exhibit anti-tumor activity | exhibit anti-tumor activity |
| C[C@]12CC[C@H](OC(=O)N(C(=O)N(CCCl)N=O)c3ccc(Cl)cc3)CC1=CC[C@@H]1[C@@H]2CC[C@]2(C)C(=O)CC[C@@H]12 [dehydroepiandrosterone-3β-/N^2-(p-chlorophenyl)-N^4-(2-chloroethyl)-N^4-nitroso allophanate/] | exhibit anti-tumor activity | exhibit anti-tumor activity |
| CN(C(=O)O[C@H]1CC[C@@]2(C)C(=CC[C@@H]3[C@@H]2CC[C@]2(C)C(=O)CC[C@@H]32)C1)C(=O)N(CCCl)N=O [dehydroepiandrosterone-3β-/N^2-methyl-N^4-(2-chloroethyl)-N^4-nitroso allophanate/] | exhibit anti-tumor activity | exhibit anti-tumor activity |
| CC(=O)[C@H]1CC[C@H]2[C@@H]3CC=C4C[C@@H](OC(=O)N(C)C(=O)N(CCCl)N=O)CC[C@]4(C)[C@H]3CC[C@]12C [pregnenolone-3β-/N^2-methyl-N^4-(2-chloroethyl)-N^4-nitroso allophanate/] | exhibit anti-tumor activity | – |
